SMILES strings stand for the structures. Like-named read-outs stand apart in the source and are kept apart here.

Data on 13 compounds can be found in US20210177847A1, “Compounds for treatment of diseases related to DUX4 expression” (Facio Intellectual Property B.V., priority 2017, published 2021).

For one test, the system named is DUX4. The test is described as follows: High-content immunocytochemistry assay of endogenous DUX4 expression in differentiating primary FSHD myotubes. Particulars: for EC50: Homo sapiens, Myotube, read-out: half maximal effective concentration (EC50), DUX4 repression. The test is classed as cell-based, human. From the text:
A quantitative assay readout was developed based on script-based image analysis. Cells were stained according to example 1, also using DAPI to detect myonuclei and an antibody against myosin heavy chain (MHC) to visualize the formation of myotubes. To analyse the images, an automated script was developed, enabling the detection of nuclei, myotube borders and DUX4 signals, with the script also detecting artefacts to reduce false positive signals. The script enabled multiple validated readouts including the number of DUX4 positive nuclei and nuclei clusters, the fusion index, myotube area, myotube width and myotube skeleton length (see FIG. 2). Additionally, the total nuclei count was included as a measure of cell loss or compound toxicity. The script was validated by evaluating endogenous DUX4 expression in the primary myotubes, and results were in line with literature values, with the number of DUX4 expressing nuclei being <0.5%.
A compound library containing approximately 5000 annotated compounds was screened in the high-content assay. For this purpose, primary myoblasts were seeded in 384 well plates after which the growth medium was replaced with differentiation medium. After 3 days of differentiation, cells were treated with library compounds (in duplicate on different screening plates) for 15 h, after which they were fixed and stained with antibodies against DUX4, antibodies against myosin heavy chain (MHC), and with DAPI (4′,6-diamidino-2-phenylindole). Script-based analysis provided readouts for DUX4 expression (count of DUX4-positive nuclei or DUX4 intensity) and for potential toxicity (fusion index and nuclei count). The majority of the approximately 200 hits was confirmed in an experiment using the same assay and 5 replicates. These compounds were selected for further concentration-response profiling.
The DUX4 repression of CK1 inhibitors was assayed following the protocol of Example 2, illustrated in FIG. 4A. […] Compounds were incubated with primary FSHD cells for 15 hours, as indicated by the arrow in FIG. 4A.

For the next test, the target named is CK1α (Homo sapiens, UniProt P48729). The test is described as follows: CK1α inhibition IC50. Format: biochemical. Particulars: Table 3; read-out: CK1 a IC50.
Sequence of CK1α (P48729 whole entry): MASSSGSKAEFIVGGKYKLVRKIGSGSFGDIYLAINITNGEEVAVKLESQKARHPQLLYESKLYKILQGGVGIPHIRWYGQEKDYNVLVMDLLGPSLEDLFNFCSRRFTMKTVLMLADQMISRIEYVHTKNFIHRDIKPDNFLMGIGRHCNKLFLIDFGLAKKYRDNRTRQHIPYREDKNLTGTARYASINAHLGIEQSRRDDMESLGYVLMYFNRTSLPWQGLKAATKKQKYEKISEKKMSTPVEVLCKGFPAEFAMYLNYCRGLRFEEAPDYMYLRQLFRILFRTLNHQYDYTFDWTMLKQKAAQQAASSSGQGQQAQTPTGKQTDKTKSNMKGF
The next test deals with CK1δ (Homo sapiens, UniProt P48730). The test can be described thus: CK1δ inhibition IC50. Particulars: Table 3; read-out: CK1 d IC50. The test is classed as biochemical.
Sequence of CK1δ (P48730 whole entry): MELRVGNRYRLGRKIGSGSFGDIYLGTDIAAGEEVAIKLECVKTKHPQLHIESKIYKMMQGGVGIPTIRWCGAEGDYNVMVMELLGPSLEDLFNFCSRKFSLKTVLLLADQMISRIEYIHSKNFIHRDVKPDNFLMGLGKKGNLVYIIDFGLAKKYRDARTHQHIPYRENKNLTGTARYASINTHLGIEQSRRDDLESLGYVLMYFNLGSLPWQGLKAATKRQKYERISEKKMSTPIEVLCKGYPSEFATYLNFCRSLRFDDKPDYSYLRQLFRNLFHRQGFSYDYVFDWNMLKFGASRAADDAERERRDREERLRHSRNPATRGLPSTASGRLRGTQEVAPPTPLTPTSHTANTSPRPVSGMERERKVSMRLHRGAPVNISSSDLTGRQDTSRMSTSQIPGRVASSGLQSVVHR
For another test, the target named is CK1ε (Homo sapiens, UniProt P49674). The test is described as follows: CK1ε inhibition IC50. Particulars: Table 3; read-out: CK1 e IC50. Format: biochemical.
Sequence of CK1ε (P49674 whole entry): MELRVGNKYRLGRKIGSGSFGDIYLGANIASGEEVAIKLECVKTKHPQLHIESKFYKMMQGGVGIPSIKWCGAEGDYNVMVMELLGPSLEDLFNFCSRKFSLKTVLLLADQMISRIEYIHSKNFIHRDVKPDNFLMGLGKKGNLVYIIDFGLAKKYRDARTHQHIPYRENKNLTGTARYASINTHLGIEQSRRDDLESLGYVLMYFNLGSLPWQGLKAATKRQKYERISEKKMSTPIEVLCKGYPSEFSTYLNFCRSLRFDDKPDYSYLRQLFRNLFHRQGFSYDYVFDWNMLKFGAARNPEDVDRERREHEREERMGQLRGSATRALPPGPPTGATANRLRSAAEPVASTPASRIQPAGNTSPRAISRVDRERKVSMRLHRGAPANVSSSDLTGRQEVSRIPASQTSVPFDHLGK
The next test concerns the target p38α (Homo sapiens, UniProt Q16539). The test can be described thus: p38α inhibition IC50. The test is classed as biochemical. The note with it: Table 3; read-out: p38a IC50.
Where [1] appears, read: primary FSHD cells, compounds incubated 15 hours, Table 3.

Sequence of p38α (Q16539 whole entry): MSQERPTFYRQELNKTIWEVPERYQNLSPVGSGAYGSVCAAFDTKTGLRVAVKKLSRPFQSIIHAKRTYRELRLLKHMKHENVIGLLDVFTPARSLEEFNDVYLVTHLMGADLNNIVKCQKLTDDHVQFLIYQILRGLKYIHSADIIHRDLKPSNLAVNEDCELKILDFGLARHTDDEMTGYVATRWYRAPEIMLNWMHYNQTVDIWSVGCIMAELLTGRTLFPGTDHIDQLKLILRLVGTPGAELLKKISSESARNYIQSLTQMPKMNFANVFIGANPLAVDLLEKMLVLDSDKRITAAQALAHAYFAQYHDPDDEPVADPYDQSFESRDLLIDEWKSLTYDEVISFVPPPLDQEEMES

For `Fc1ccc(-c2nc3ccc(N4CCNCC4)nn3c2-c2ccncc2)cc1` [Compound H], in the test with DUX4 (setting [1]), the EC50 is 10 to 46 nM. In addition, the IC50 at CK1α amounted to 22 nM; at CK1δ, 16.5 nM; on CK1ε, 9.41 nM; on p38α, 14.8 nM.

In the case of `CNCc1cc(-c2cn(C)nc2-c2ccc(F)cc2)ccn1` [Compound I], the EC50 in the test on DUX4 (15 h) lay in the range of 3100 to 5500 nM. Moreover, the IC50 stood at 1760 nM on CK1α, 57.7 nM at CK1δ, 89 nM on CK1ε and 3070 nM at p38α.

For `Fc1cccc(-n2cnc3c(NCc4nc5ccc(F)c(F)c5[nH]4)nc(N4CCOCC4)nc32)c1` [SR-3029, reference compound], in the test on DUX4 (15 h), the EC50 is 50 to 120 nM. Besides, the IC50 at CK1α and on p38α was 1000 nM throughout.

Consider `CNc1nccc(-c2c(-c3ccc(F)cc3)ncn2C2CCN(Cc3ccon3)CC2)n1` [Compound C], for which, in the test with DUX4 (setting [1]), the EC50 was 1100 to 1400 nM.

As for `Nc1nccc(-c2c(-c3ccc(F)cc3)ncn2C2CCN(Cc3ccon3)CC2)n1` [PF-5006739, reference compound], in the test with DUX4 (setting [1]), the EC50 came out at 310 nM.

Regarding `Fc1ccc(-c2nc(-c3c(F)cccc3F)[nH]c2-c2ccncc2)cc1` [Compound O], the EC50 in the test with DUX4 (setting [1]) was 710 nM.

In the case of `CN1Cc2nccc(-c3cn(C)nc3-c3ccc(F)cc3)c2C1=O` [Compound E], the EC50 with DUX4 (15 h) was in the range of 1900 to 3100 nM.

Regarding `CC1(C)CN(c2ccc3nc(-c4ccc(F)cc4)c(-c4ccncc4)n3n2)CCN1` [Compound A], the EC50 with DUX4 (setting [1]) was in the range of 40 to 50 nM.

On to `CN1CCN(c2ccc3nc(-c4ccc(F)cc4)c(-c4ccncc4)n3n2)CC1` [Compound B], for which the EC50 in the test with DUX4 (setting [1]) came to 2000 nM.

Turning to `COc1cc(OC)c2c(=O)[nH]c(-c3cc(C)c(OCCO)c(C)c3)nc2c1` [RVX-208, reference compound], the “effect on DUX4 expression” value in the test on DUX4 (irrespective of treatment time (15 h or 72 h), not shown) is “did not show any effect on DUX4 expression”.

Consider `Nc1nccc(-c2c(-c3ccc(F)cc3)ncn2C2CCCCC2)n1` [PF-670462, reference compound], for which, in the test on DUX4 (setting [1]), the EC50 came to 430 nM.

Regarding `COCCN1Cc2nccc(-c3cn(C)nc3-c3ccc(F)cc3)c2C1=O` [Compound G], the EC50 with DUX4 (setting [1]) fell in the range of 1700 to 4500 nM. For the same compound, the IC50 at CK1α is 2590 nM; at CK1δ, 41.8 nM; at CK1ε, 92.1 nM; at p38α, 712 nM.

With `Cn1cc(-c2ccnc3c2C(=O)N(C2CCOCC2)C3)c(-c2ccc(F)cc2)n1` [Compound F], the EC50 in the test on DUX4 (setting [1]) lay within 1500 to 2600 nM.

What is called IC50 is the concentration that inhibits the measured activity by half.
